Consider eleven compounds from patent publication US20230399289A1, “ITACONIC ACID DERIVATIVES” (Sitryx Therapeutics Limited, priority 2020, published 2023).

Data set [1] deals with hepatocytes. The experiment in a line: Hepatocyte stability assay, human. It counts as in vitro ADME. Conditions: 10 μM compound, 0.5×10^6 cells/mL, 60 min. The source says:
(§1) Defrosted cryo-preserved hepatocytes (viability>70%) may be used to determine the metabolic stability of a compound via calculation of intrinsic clearance (Clint; a measure of the removal of a compound from the liver in the absence of blood flow and cell binding). Clearance data are particularly important for in vitro work as they can be used in combination with in vivo data to predict the half-life and oral bioavailability of a drug.
(§2) The metabolic stability in hepatocytes assay involves a time-dependent reaction using both positive and negative controls. The cells were pre-incubated at 37° C. and spiked with test compound (and positive control); samples were taken at pre-determined time intervals and analysed to monitor the change in concentration of the initial drug compound over 60 minutes. A buffer incubation reaction (with no hepatocytes present) acted as a negative control and two cocktail solutions, containing compounds with known high and low clearance values (verapamil/7-hydroxycoumarin and propranolol/diltiazem), acted as positive controls. • 1. The assay was run with a cell concentration of 0.5×10^6 cells/mL in Leibovitz buffer. • 2. All compounds and controls were run in duplicate. • 3. Compound concentration was 10 μM. • 4. All compounds and controls were incubated with both cells and buffer to show turnover was due to hepatic metabolism. • 5. All wells on the incubation plate had 326.7 μL of either cells or buffer added. • 6. Prior to assay, cell and buffer-only incubation plates were preincubated for 10 mins at 37° C. • 7. The assay was initiated by adding compounds, 3.3 μL of 1 mM in 10% DMSO-90% Buffer; final DMSO concentration is 0.1%. • 8. Samples were taken at regular timepoints (0, 5, 10, 20, 40, 60 min) until 60 mins. • 9. Sample volume was 40 μL and was added to 160 μL of crash solvent (acetonitrile with internal standard) and stored on ice. • 10. At the end of the assay, the crash plates were centrifuged at 3500 rpm for 20 mins at 4° C. • 11. 80 μL of clear supernatant was removed and mixed with 80 μL of deionised water before being analysed by LC-MS/MS.
(§3) Raw LC-MS/MS data was exported to, and analysed in, Microsoft Excel for determination of intrinsic clearance. The percentage remaining of a compound was monitored using the peak area of the initial concentration as 100%. Intrinsic clearance and half-life values were calculated using a graph of the natural log of percentage remaining versus the time of reaction in minutes. Half-life (min) and intrinsic clearance (Clint in μL min^−1 10^−6 cells) values were calculated using the gradient of the graph (the elimination rate constant, k) and Equations 1 and 2.

A short description of data set [2]: Hepatocyte stability assay, human. It counts as in vitro ADME. Conditions: cryopreserved hepatocytes, 10 μM compound, 0.5×10^6 cells/mL, 60 min, read-out: T½.
From the text: as §1, §2, §3

The test system of data set [3] is hepatocytes. Kind of data set: Hepatocyte stability assay, mouse. It counts as in vitro ADME. Conditions: 10 μM compound, 0.5×10^6 cells/mL, 60 min.
From the text: as §1, §2, §3

The nature of data set [4]: Hepatocyte stability assay, mouse. Conditions: cryopreserved hepatocytes, 10 μM compound, 0.5×10^6 cells/mL, 60 min, read-out: T½. It counts as in vitro ADME.
From the text: as §1, §2, §3

For data set [5], the system named is IL-1β cytokine output from THP-1 cells. The experiment in a line: THP-1 AlphaLISA IL-1β cytokine assay. Conditions: Homo sapiens, THP-1, differentiated THP-1 cells, LPS 24 hr then Nigericin 1 hour. It counts as cell-based. The procedure: (§4) Measuring Inhibitory Effects on IL-1β and IL-6 Cytokine Output from THP-1s
(§5) The cytokine inhibition profiles of compounds of formula (I) were determined in a differentiated THP-1 cell assay. All assays were performed in RPMI-1640 growth medium (Gibco), supplemented with 10% fetal bovine serum (FBS; Gibco), 1% penicillin-streptomycin and 1% sodium pyruvate unless specified otherwise. The IL-1β and IL-6 cytokine inhibition assays were each run in a background of differentiated THP-1 cells as described below. All reagents described were from Sigma-Aldrich unless specified otherwise. Compounds were prepared as 10 mM DMSO stocks.
(§6) THP-1 cells were expanded as a suspension up to 80% confluence in appropriate growth medium. Cells were harvested, suspended, and treated with an appropriate concentration of phorbol 12-myristate 13-acetate (PMA) over a 72 hr period (37° C./5% CO2).
(§7) Following 72 hrs of THP-1 cell incubation, cellular medium was removed and replaced with fresh growth media containing 1% of FBS. Working concentrations of compounds were prepared separately in 10% FBS treated growth medium and pre-incubated with the cells for 30 minutes (37° C./5% CO2). Following the 30 minute compound pre-incubation, THP-1s were treated with an appropriate concentration of LPS and the THP-1s were subsequently incubated for a 24 hr period (37° C./5% CO2). An appropriate final concentration of Nigericin was then dispensed into the THP-1 plates and incubated for 1 hour (37° C./5% CO2) before THP-1 supernatants were harvested and collected in separate polypropylene 96-well holding plates.
(§8) Reagents from each of the […] and IL-6 commercial kits (Perkin Elmer) were prepared and run according to the manufacturer's instructions. Subsequently, fluorescence signal detection in a microplate reader was measured (EnVision® Multilabel Reader, Perkin Elmer).
(§9) Percentage inhibition was calculated per cytokine by normalising the sample data to the high and low controls used within each plate (+/−LPS respectively). Percentage inhibition was then plotted against compound concentration and the 50% inhibitory concentration (IC50) was determined from the resultant concentration-response curve.
(Bead proximity is the source of the signal in Alpha formats.)

Data set [6] has as its system NRF2 (nuclear factor erythroid 2-related factor 2). The experiment in a line: NRF2 +/−GSH activation assay (DiscoverX PathHunter NRF2 translocation kit, U2OS cells). It counts as cell-based. Conditions: Homo sapiens; for Emax: U2OS, normalised to dimethyl fumarate high control; for EC50: U2OS PathHunter cells, 6 hours.
Data set [7] deals with IL-6 cytokine output from THP-1 cells. Kind of data set: THP-1 AlphaLISA IL-6 cytokine assay. The data set is classed as cell-based. Conditions: Homo sapiens, THP-1, differentiated THP-1 cells, LPS 24 hr then Nigericin 1 hour. The procedure: as §4, §5, §6, §7, §8, §9
Where [8] appears, read: +GSH, 30 minute compound-GSH pre-incubation.

The term IC50 denotes the concentration that gives 50% inhibition. A lower IC50 goes with higher potency. For orientation: Emax means the maximal effect, on the per cent scale that the assay sets. As a reminder, the EC50 is the concentration giving half of the maximal effect. Read a high EC50 as lower potency in that assay. As to `C=C(CC(=O)OC1(c2ccc(Cl)cc2Cl)CCC1)C(=O)OCC(=O)O` [Example 10, 2-((4-(1-(2,4-dichlorophenyl)cyclobutoxy)-2-methylene-4-oxobutanoyl)oxy)acetic acid], the figures for the CIint in the data set with hepatocytes [1] and in the data set with hepatocytes [3] were 14 μL min^−1 10^−6 cells and 187 μL min^−1 10^−6 cells, respectively. In addition, the half-life at 10 μM in data set [2] is 1.78 h; in data set [4] it was 0.133 h. In data set [5], 11.3 µM corresponded to half-maximal inhibition (IC50). Besides, the Emax was 175% in data set [6] (+GSH) and 236% in data set [6] (−GSH). Besides, the EC50 in data set [6] (setting [8]) turned out to be 11.6 µM; in data set [6] (−GSH), 8.3 µM.

For `C=C(CC(=O)OC1(c2ccc(C(F)(F)F)cc2)COC1)C(=O)OCCC(=O)O` [Example 32, 3-((2-methylene-4-oxo-4-((3-(4-(trifluoromethyl)phenyl)oxetan-3-yl)oxy)butanoyl)oxy)propanoic acid], the CIint in the data set with hepatocytes [1] was 4 μL min^−1 10^−6 cells; with hepatocytes [3], 36 μL min^−1 10^−6 cells. Further, the figures for the half-life at 10 μM in data set [2] and in data set [4] were 6.78 h and 0.683 h, respectively. Besides, the half-inhibitory concentration (IC50) in data set [5] worked out at 7.4 µM; in data set [7], 11.9 µM.

With `C=C(CC(=O)OC1(c2ccc(C(F)(F)F)cc2Cl)CCC1)C(=O)OCC(=O)O` [Example 11, 2-((4-(1-(2-chloro-4-(trifluoromethyl)phenyl)cyclobutoxy)-2-methylene-4-oxobutanoyl)oxy)acetic acid], the CIint is on record as 10 μL min^−1 10^−6 cells in the data set on hepatocytes [1] and 100 μL min^−1 10^−6 cells in the data set on hepatocytes [3]. The half-life at 10 μM in data set [2] was found to be 2.53 h; in data set [4] it was 0.25 h. In data set [5], this compound had a 50% inhibitory concentration (IC50) of 9 µM. Further, the Emax in data set [6] (+GSH) was 160%; in data set [6] (−GSH), 214%. The EC50 in data set [6] (setting [8]) stood at 5.1 µM; in data set [6] (−GSH) it was 3 µM.

As to `C=C(CC(=O)OC1(c2ccc(Br)cc2Cl)CCC1)C(=O)OCC(=O)O` [Example 12, 2-((4-(1-(4-bromo-2-chlorophenyl)cyclobutoxy)-2-methylene-4-oxobutanoyl)oxy)acetic acid], the CIint with hepatocytes [1] turned out to be 23 μL min^−1 10^−6 cells; with hepatocytes [3], 239 μL min^−1 10^−6 cells. The half-life at 10 μM in data set [2] was found to be 1.07 h; in data set [4], 0.1 h. For the same compound, in data set [5], the 50% inhibitory concentration (IC50) stood at 8.8 µM. The Emax in data set [6] (+GSH) came to 158%; in data set [6] (−GSH) it was 217%. The EC50 in data set [6] (setting [8]) was 7.9 µM; in data set [6] (−GSH), 5.2 µM.

Consider `C=C(CC(=O)OC1(c2ccc(Br)cc2)CCC1)C(=O)OCC(=O)O` [Example 3, 2-((4-(1-(4-bromophenyl)cyclobutoxy)-2-methylene-4-oxobutanoyl)oxy)acetic acid], for which the CIint was 9 μL min^−1 10^−6 cells in the data set with hepatocytes [1] and 95 μL min^−1 10^−6 cells in the data set on hepatocytes [3]. For the same compound, the figures for the half-life at 10 μM in data set [2] and in data set [4] were 2.9 h and 0.333 h, respectively. Further, the values for the IC50 in data set [5] and in data set [7] were 12.1 µM and 11.3 µM, respectively.

As to `C=C(CC(=O)OC1(c2ccc(OC(F)(F)F)cc2Cl)CCC1)C(=O)OCC(=O)O` [Example 6, 2-((4-(1-(2-chloro-4-(trifluoromethoxy)phenyl)cyclobutoxy)-2-methylene-4-oxobutanoyl)oxy)acetic acid], the CIint is on record as 18 μL min^−1 10^−6 cells in the data set on hepatocytes [1] and greater than 460 μL min^−1 10^−6 cells with hepatocytes [3]. Further, the figures for the half-life at 10 μM in data set [2] and in data set [4] were 1.42 h and less than 0.05 h, respectively. This compound also came in with an IC50 in data set [5] of 12.7 µM. The Emax in data set [6] (+GSH) came to 187%; in data set [6] (−GSH), 219%. Further, the EC50 in data set [6] (setting [8]) worked out at 15.4 µM; in data set [6] (−GSH), 11.9 µM.

For the compound `C=C(CC(=O)OC1(c2ccc(OC(F)(F)F)cc2)CCC1)C(=O)OCC(=O)O` [Example 9, 2-((2-methylene-4-oxo-4-(1-(4-(trifluoromethoxy)phenyl)cyclobutoxy)butanoyl)oxy)acetic acid], the CIint with hepatocytes [1] came to 6 μL min^−1 10^−6 cells; with hepatocytes [3], 66 μL min^−1 10^−6 cells. The half-life at 10 μM came out at 4.18 h in data set [2] and 0.483 h in data set [4]. For the same compound, the half-inhibitory concentration (IC50) in data set [5] came out at 12.1 µM. Further, the values for the maximal effect (Emax) in data set [6] (+GSH) and in data set [6] (−GSH) were 182% and 210%, respectively. Further, the figures for the EC50 in data set [6] (setting [8]) and in data set [6] (−GSH) were 7.3 µM and 5.1 µM, respectively.

For `C=C(CC(=O)OC1(c2ccc(C(F)(F)F)cc2)CC1)C(=O)OCC(=O)O` [Example 30, 2-((2-methylene-4-oxo-4-(1-(4-(trifluoromethyl)phenyl)cyclopropoxy)butanoyl)oxy)acetic acid], the CIint was determined as 16 μL min^−1 10^−6 cells with hepatocytes [1] and 33 μL min^−1 10^−6 cells in the data set with hepatocytes [3]. In addition, the half-life at 10 μM was determined as 1.43 h in data set [2] and 0.65 h in data set [4]. For the same compound, the IC50 was 16.7 µM in data set [5] and greater than 100 µM in data set [7].

In the case of `C=C(CC(=O)OC1(c2cc(Cl)c(F)c(Cl)c2)CCC1)C(=O)OCC(=O)O` [Example 17, 2-((4-(1-(3,5-dichloro-4-fluorophenyl)cyclobutoxy)-2-methylene-4-oxobutanoyl)oxy)acetic acid], the CIint with hepatocytes [1] stood at 8 μL min^−1 10^−6 cells; with hepatocytes [3] it was 73 μL min^−1 10^−6 cells. Also, the values for the half-life at 10 μM in data set [2] and in data set [4] were 3.13 h and 0.35 h, respectively. The compound also displayed an IC50 in data set [5] of 4.9 µM.

Turning to `C=C(CC(=O)OC1(c2cc(Cl)c(OC)c(Cl)c2)CCC1)C(=O)OCC(=O)O` [Example 18, 2-((4-(1-(3,5-dichloro-4-methoxyphenyl)cyclobutoxy)-2-methylene-4-oxobutanoyl)oxy)acetic acid], the CIint with hepatocytes [1] was 13 μL min^−1 10^−6 cells; with hepatocytes [3], 58 μL min^−1 10^−6 cells. In addition, the values for the half-life at 10 μM in data set [2] and in data set [4] were 1.82 h and 0.433 h, respectively. Inhibition in data set [5] was half-maximal at 9.9 µM (IC50).

In the case of `C=C(CC(=O)OC1(c2ccc(C)c(Cl)c2)CCC1)C(=O)OCC(=O)O` [Example 20, 2-((4-(1-(3-chloro-4-methylphenyl)cyclobutoxy)-2-methylene-4-oxobutanoyl)oxy)acetic acid], the CIint in the data set with hepatocytes [1] is on record as 15 μL min^−1 10^−6 cells; with hepatocytes [3], 77 μL min^−1 10^−6 cells. For the same compound, the half-life at 10 μM amounted to 1.4 h in data set [2] and 0.433 h in data set [4]. Besides, in data set [5], the IC50 was 8.7 µM.
